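Cultured in 96-well plates, cells were exposed to test compound for 48 hours across five concentrations. GI50: concentration for 50% inhibition of growth.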 Activity calls are given as the source filed them. Cut-off read from the data, not from the text of the source: active = GI50 up to about 1.1 µM and inactive = higher.
How the values were obtained:
Test in all cases: DTP human tumour cell line panel, 48 h
UACC-62 = tested on: UACC-62
786-0 = tested on: 786-0
U-251 = tested on: U-251
LXFL 529 = tested on: LXFL 529
SK-OV-3 = tested on: SK-OV-3
M14 = tested on: M14
COLO 205 = tested on: COLO 205
SK-MEL-28 = tested on: SK-MEL-28
OVCAR-4 = tested on: OVCAR-4
SF-295 = tested on: SF-295
HOP-18 = tested on: HOP-18
RPMI-8226 = tested on: RPMI-8226
KM12 = tested on: KM12
SNB-19 = tested on: SNB-19
KM-20L2 = tested on: KM-20L2
HL-60 = tested on: HL-60
EKVX = tested on: EKVX
HOP-92 = tested on: HOP-92
NCI-H460 = tested on: NCI-H460
A498 = tested on: A498
IGROV-1 = tested on: IGROV-1
SNB-75 = tested on: SNB-75
SF-268 = tested on: SF-268
DMS-273 = tested on: DMS-273
HOP-62 = tested on: HOP-62
XF498 = tested on: XF498
HCT-15 = tested on: HCT-15
Malme-3M = tested on: Malme-3M
HCT-116 = tested on: HCT-116
SK-MEL-5 = tested on: SK-MEL-5
UACC-257 = tested on: UACC-257
SF-539 = tested on: SF-539
A549 = tested on: A549
NCI-H522 = tested on: NCI-H522
TK-10 = tested on: TK-10
DLD-1 = tested on: DLD-1
HCC 2998 = tested on: HCC 2998
NCI-H23 = tested on: NCI-H23
NCI-H226 = tested on: NCI-H226
SW-620 = tested on: SW-620
DMS-114 = tested on: DMS-114
SNB-78 = tested on: SNB-78
OVCAR-3 = tested on: OVCAR-3
LOX IMVI = tested on: LOX IMVI
HT-29 = tested on: HT-29
SK-MEL-2 = tested on: SK-MEL-2
OVCAR-8 = tested on: OVCAR-8
RXF 393 = tested on: RXF 393
OVCAR-5 = tested on: OVCAR-5
CAKI-1 = tested on: CAKI-1
M19-MEL = tested on: M19-MEL
SN12C = tested on: SN12C
UO-31 = tested on: UO-31
MOLT-4 = tested on: MOLT-4
CCRF-CEM = tested on: CCRF-CEM
ACHN = tested on: ACHN
K562 = tested on: K562
SR = tested on: SR
RXF 631 = tested on: RXF 631
MCF7 = tested on: MCF7
NCI/ADR-RES = tested on: NCI/ADR-RES

## Clc1ccc(SCCCCCCCCCCSc2ccc(Cl)cc2)cc1
UACC-62
  GI50: > 100 µM (inactive)
786-0
  GI50: > 55.6 µM (inactive)
U-251
  GI50: > 57.4 µM (inactive)
LXFL 529
  GI50: > 100 µM (inactive)
SK-OV-3
  GI50: > 100 µM (inactive)
M14
  GI50: > 100 µM (inactive)
COLO 205
  GI50: > 100 µM (inactive)
SK-MEL-28
  GI50: > 100 µM (inactive)
OVCAR-4
  GI50: > 100 µM (inactive)
SF-295
  GI50: > 57.9 µM (inactive)
HOP-18
  GI50: > 100 µM (inactive)
RPMI-8226
  GI50: > 100 µM (inactive)
KM12
  GI50: > 55.1 µM (inactive)
SNB-19
  GI50: > 100 µM (inactive)
KM-20L2
  GI50: > 63.7 µM (inactive)
HL-60
  GI50: > 100 µM (inactive)
EKVX
  GI50: > 70 µM (inactive)
HOP-92
  GI50: > 100 µM (inactive)
NCI-H460
  GI50: > 59.7 µM (inactive)
A498
  GI50: > 73.8 µM (inactive)
IGROV-1
  GI50: > 100 µM (inactive)
SNB-75
  GI50: > 100 µM (inactive)
SF-268
  GI50: > 100 µM (inactive)
DMS-273
  GI50: > 100 µM (inactive)
HOP-62
  GI50: > 76.2 µM (inactive)
XF498
  GI50: > 100 µM (inactive)
HCT-15
  GI50: > 54.2 µM
Malme-3M
  GI50: > 56.5 µM (inactive)
HCT-116
  GI50: > 100 µM (inactive)
SK-MEL-5
  GI50: > 55.1 µM (inactive)
UACC-257
  GI50: > 57 µM (inactive)
SF-539
  GI50: > 100 µM (inactive)
A549
  GI50: > 73.8 µM (inactive)
NCI-H522
  GI50: > 100 µM (inactive)
TK-10
  GI50: > 61.9 µM (inactive)
DLD-1
  GI50: > 100 µM (inactive)
HCC 2998
  GI50: > 46.1 µM (inactive)
NCI-H23
  GI50: > 100 µM (inactive)
NCI-H226
  GI50: > 100 µM (inactive)
SW-620
  GI50: 37.5 µM (inactive)
DMS-114
  GI50: > 100 µM (inactive)
SNB-78
  GI50: > 100 µM (inactive)
OVCAR-3
  GI50: > 56.8 µM (inactive)
LOX IMVI
  GI50: > 100 µM (inactive)
HT-29
  GI50: > 100 µM (inactive)
SK-MEL-2
  GI50: > 56.1 µM (inactive)
OVCAR-8
  GI50: > 61 µM (inactive)
RXF 393
  GI50: > 100 µM (inactive)
OVCAR-5
  GI50: > 61 µM (inactive)
CAKI-1
  GI50: > 100 µM (inactive)
M19-MEL
  GI50: > 100 µM (inactive)
SN12C
  GI50: > 100 µM (inactive)
UO-31
  GI50: > 100 µM (inactive)
MOLT-4
  GI50: > 100 µM (inactive)
CCRF-CEM
  GI50: > 100 µM (inactive)
ACHN
  GI50: > 58.7 µM (inactive)
K562
  GI50: > 91.2 µM (inactive)

## C[C@H]1C(=O)CC[C@]2(C)CCC(C(C)(C)O)CC12O (some centres not stated)
UACC-62
  GI50: > 100 µM (inactive)
786-0
  GI50: > 100 µM (inactive)
U-251
  GI50: > 100 µM (inactive)
SR
  GI50: > 100 µM (inactive)
LXFL 529
  GI50: > 100 µM (inactive)
SK-OV-3
  GI50: > 100 µM (inactive)
M14
  GI50: > 100 µM (inactive)
COLO 205
  GI50: > 100 µM (inactive)
SK-MEL-28
  GI50: > 100 µM (inactive)
OVCAR-4
  GI50: > 100 µM (inactive)
SF-295
  GI50: > 100 µM (inactive)
HOP-18
  GI50: > 100 µM (inactive)
RPMI-8226
  GI50: > 100 µM (inactive)
KM12
  GI50: > 100 µM (inactive)
SNB-19
  GI50: > 100 µM (inactive)
KM-20L2
  GI50: > 100 µM (inactive)
HL-60
  GI50: > 100 µM (inactive)
EKVX
  GI50: > 100 µM (inactive)
HOP-92
  GI50: > 100 µM (inactive)
NCI-H460
  GI50: > 100 µM (inactive)
A498
  GI50: > 100 µM (inactive)
IGROV-1
  GI50: > 100 µM (inactive)
SNB-75
  GI50: 12.8 µM (inactive)
SF-268
  GI50: > 100 µM (inactive)
DMS-273
  GI50: > 100 µM (inactive)
HOP-62
  GI50: > 100 µM (inactive)
HCT-15
  GI50: > 100 µM
Malme-3M
  GI50: > 100 µM (inactive)
RXF 631
  GI50: > 100 µM (inactive)
HCT-116
  GI50: > 100 µM (inactive)
SK-MEL-5
  GI50: > 100 µM (inactive)
UACC-257
  GI50: > 100 µM (inactive)
SF-539
  GI50: > 100 µM (inactive)
A549
  GI50: > 100 µM (inactive)
NCI-H522
  GI50: > 100 µM (inactive)
TK-10
  GI50: > 100 µM (inactive)
DLD-1
  GI50: > 100 µM (inactive)
HCC 2998
  GI50: > 100 µM (inactive)
NCI-H23
  GI50: > 100 µM (inactive)
NCI-H226
  GI50: > 100 µM (inactive)
SW-620
  GI50: > 100 µM (inactive)
DMS-114
  GI50: > 100 µM (inactive)
SNB-78
  GI50: > 100 µM (inactive)
OVCAR-3
  GI50: > 100 µM (inactive)
LOX IMVI
  GI50: > 100 µM (inactive)
HT-29
  GI50: > 100 µM (inactive)
SK-MEL-2
  GI50: > 100 µM (inactive)
OVCAR-8
  GI50: > 100 µM (inactive)
RXF 393
  GI50: > 100 µM (inactive)
OVCAR-5
  GI50: > 100 µM (inactive)
CAKI-1
  GI50: > 100 µM (inactive)
SN12C
  GI50: > 100 µM (inactive)
UO-31
  GI50: > 100 µM (inactive)
MOLT-4
  GI50: > 100 µM (inactive)
CCRF-CEM
  GI50: > 100 µM (inactive)
ACHN
  GI50: > 100 µM (inactive)
K562
  GI50: > 100 µM (inactive)

## CCCCCCCCCCCCCCCCSCC(COC)COP(=O)([O-])OCC[N+](C)(C)C (configuration not stated) [ILMOFOSINE]
UACC-62
  GI50: 4.92 µM (inactive)
U-251
  GI50: 1.99 µM (inactive)
SK-OV-3
  GI50: 15.2 µM (inactive)
COLO 205
  GI50: 1.97 µM (inactive)
SK-MEL-28
  GI50: 15.5 µM (inactive)
OVCAR-4
  GI50: 4.06 µM (inactive)
SF-295
  GI50: 2.49 µM (inactive)
HOP-18
  GI50: 4.12 µM (inactive)
RPMI-8226
  GI50: 2.49 µM (inactive)
KM12
  GI50: 0.977 µM (active)
SNB-19
  GI50: 4.3 µM (inactive)
HL-60
  GI50: 1.55 µM (inactive)
EKVX
  GI50: 14.4 µM (inactive)
HOP-92
  GI50: 2.26 µM (inactive)
NCI-H460
  GI50: 2.5 µM (inactive)
A498
  GI50: 6.31 µM (inactive)
IGROV-1
  GI50: 1.85 µM (inactive)
MCF7
  GI50: 13.2 µM (inactive)
SNB-75
  GI50: 3.31 µM (inactive)
SF-268
  GI50: 7.57 µM (inactive)
DMS-273
  GI50: 1.85 µM (inactive)
HOP-62
  GI50: 3.43 µM (inactive)
XF498
  GI50: 6.3 µM (inactive)
HCT-15
  GI50: 2.88 µM
Malme-3M
  GI50: 15.5 µM (inactive)
HCT-116
  GI50: 6.76 µM (inactive)
NCI/ADR-RES
  GI50: 16.5 µM (inactive)
SK-MEL-5
  GI50: 12.7 µM (inactive)
UACC-257
  GI50: 14.3 µM (inactive)
SF-539
  GI50: 16.1 µM (inactive)
A549
  GI50: 7.21 µM (inactive)
NCI-H522
  GI50: 2.34 µM (inactive)
DLD-1
  GI50: 3.03 µM (inactive)
HCC 2998
  GI50: 1.52 µM (inactive)
NCI-H23
  GI50: 13.6 µM (inactive)
NCI-H226
  GI50: 3.72 µM (inactive)
SW-620
  GI50: 5.78 µM (inactive)
DMS-114
  GI50: 7.5 µM (inactive)
SNB-78
  GI50: 10.2 µM (inactive)
OVCAR-3
  GI50: 5.38 µM (inactive)
LOX IMVI
  GI50: 5.41 µM (inactive)
HT-29
  GI50: 3.09 µM (inactive)
SK-MEL-2
  GI50: 15.5 µM (inactive)
OVCAR-8
  GI50: 9.06 µM (inactive)
RXF 393
  GI50: 3.52 µM (inactive)
OVCAR-5
  GI50: 13.3 µM (inactive)
CAKI-1
  GI50: 3.52 µM (inactive)
M19-MEL
  GI50: 2.79 µM (inactive)
SN12C
  GI50: 3.24 µM (inactive)
UO-31
  GI50: 7.69 µM (inactive)
MOLT-4
  GI50: 2.41 µM (inactive)
CCRF-CEM
  GI50: 2.9 µM (inactive)
K562
  GI50: 13.6 µM (inactive)

Source: ChEMBL document CHEMBL1201862, “PubChem BioAssay data set” (2004)
